# Results published in patent US5364842A (priority 1993, dated 1994).
# Several values for one entry are separate records, joined by “and”; a condition that tells them apart may be missing. Equal values may be shown once.
# Tests used:
# [1] = system: rat tail-flick latency to heat stimulus; conditions: in vivo
# [2] = molecular target: N-type or omega HVA neuronal calcium channels; calcium currents in N1E-115 neuroblastoma cells (Mus musculus, UniProt O55017); format: cell-based
# [3] = system: potassium-stimulated dopamine release from striatal slices; format: cell-based, rat; conditions: 1 µM
# [4] = system: potassium-stimulated acetylcholine release from striatal slices; conditions: 1 µM
# [5] = system: voltage-gated calcium currents in IMR-32 cells; format: cell-based, human
# Chain of N-type or omega HVA neuronal calcium channels; calcium currents in N1E-115 neuroblastoma cells (O55017 whole entry): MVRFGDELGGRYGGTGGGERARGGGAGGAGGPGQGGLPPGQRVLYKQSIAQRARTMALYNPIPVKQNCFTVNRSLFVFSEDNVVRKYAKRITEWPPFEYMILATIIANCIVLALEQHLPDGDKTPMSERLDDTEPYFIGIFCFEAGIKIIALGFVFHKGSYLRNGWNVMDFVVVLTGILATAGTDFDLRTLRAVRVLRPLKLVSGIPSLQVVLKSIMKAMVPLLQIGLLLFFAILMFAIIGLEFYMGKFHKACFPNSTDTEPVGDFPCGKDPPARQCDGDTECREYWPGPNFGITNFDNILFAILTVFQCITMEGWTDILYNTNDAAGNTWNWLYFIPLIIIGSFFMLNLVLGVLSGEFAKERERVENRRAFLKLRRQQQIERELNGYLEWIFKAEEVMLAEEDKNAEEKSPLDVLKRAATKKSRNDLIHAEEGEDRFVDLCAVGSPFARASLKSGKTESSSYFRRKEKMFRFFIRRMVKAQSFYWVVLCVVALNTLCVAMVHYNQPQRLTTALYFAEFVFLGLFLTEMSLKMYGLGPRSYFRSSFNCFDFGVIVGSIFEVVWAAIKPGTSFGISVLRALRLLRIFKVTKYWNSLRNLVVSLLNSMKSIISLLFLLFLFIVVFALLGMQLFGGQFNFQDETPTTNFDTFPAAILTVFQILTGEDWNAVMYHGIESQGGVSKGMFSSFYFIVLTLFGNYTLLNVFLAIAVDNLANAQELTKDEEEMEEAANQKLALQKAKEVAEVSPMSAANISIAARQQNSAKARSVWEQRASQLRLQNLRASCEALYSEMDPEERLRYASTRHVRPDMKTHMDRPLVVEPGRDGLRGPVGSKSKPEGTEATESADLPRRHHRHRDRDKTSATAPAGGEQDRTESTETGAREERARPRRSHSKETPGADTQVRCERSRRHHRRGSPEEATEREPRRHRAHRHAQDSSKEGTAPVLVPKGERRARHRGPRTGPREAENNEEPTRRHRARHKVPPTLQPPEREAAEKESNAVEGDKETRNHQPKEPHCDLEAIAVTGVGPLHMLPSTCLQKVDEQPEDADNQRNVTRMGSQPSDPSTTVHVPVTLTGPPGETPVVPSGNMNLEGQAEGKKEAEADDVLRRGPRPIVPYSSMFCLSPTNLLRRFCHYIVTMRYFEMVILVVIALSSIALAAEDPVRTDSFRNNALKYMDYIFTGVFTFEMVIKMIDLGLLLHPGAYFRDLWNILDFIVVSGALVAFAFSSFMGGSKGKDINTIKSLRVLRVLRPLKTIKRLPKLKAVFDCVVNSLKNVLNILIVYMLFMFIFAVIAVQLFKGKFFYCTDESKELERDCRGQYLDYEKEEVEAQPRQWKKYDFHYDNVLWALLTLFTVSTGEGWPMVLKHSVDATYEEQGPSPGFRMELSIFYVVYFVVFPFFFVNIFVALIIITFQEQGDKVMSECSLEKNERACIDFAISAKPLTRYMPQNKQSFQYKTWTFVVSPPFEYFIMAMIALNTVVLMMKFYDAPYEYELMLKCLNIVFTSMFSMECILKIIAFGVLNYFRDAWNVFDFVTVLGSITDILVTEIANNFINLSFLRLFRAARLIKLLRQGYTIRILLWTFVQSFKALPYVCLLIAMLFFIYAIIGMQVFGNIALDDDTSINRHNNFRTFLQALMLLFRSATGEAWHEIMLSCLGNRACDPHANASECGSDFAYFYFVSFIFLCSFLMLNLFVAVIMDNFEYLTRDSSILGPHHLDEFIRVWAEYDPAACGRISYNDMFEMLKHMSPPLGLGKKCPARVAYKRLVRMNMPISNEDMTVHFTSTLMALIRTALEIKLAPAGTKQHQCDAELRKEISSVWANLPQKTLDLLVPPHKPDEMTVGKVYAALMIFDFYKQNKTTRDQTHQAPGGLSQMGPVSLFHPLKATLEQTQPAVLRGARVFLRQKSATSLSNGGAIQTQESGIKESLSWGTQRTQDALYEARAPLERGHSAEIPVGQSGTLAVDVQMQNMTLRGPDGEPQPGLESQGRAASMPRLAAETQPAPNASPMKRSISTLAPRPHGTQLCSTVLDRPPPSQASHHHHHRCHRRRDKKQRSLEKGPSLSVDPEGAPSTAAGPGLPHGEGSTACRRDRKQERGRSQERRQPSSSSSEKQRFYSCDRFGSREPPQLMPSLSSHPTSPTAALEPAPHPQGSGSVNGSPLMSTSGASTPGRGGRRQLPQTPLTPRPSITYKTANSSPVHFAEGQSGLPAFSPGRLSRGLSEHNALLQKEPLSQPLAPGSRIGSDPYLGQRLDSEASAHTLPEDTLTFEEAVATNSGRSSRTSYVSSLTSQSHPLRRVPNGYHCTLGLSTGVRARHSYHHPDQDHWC
# Chain of N-type or omega HVA neuronal calcium channels; calcium currents in N1E-115 neuroblastoma cells (O08532 25-956 partner limits assumed): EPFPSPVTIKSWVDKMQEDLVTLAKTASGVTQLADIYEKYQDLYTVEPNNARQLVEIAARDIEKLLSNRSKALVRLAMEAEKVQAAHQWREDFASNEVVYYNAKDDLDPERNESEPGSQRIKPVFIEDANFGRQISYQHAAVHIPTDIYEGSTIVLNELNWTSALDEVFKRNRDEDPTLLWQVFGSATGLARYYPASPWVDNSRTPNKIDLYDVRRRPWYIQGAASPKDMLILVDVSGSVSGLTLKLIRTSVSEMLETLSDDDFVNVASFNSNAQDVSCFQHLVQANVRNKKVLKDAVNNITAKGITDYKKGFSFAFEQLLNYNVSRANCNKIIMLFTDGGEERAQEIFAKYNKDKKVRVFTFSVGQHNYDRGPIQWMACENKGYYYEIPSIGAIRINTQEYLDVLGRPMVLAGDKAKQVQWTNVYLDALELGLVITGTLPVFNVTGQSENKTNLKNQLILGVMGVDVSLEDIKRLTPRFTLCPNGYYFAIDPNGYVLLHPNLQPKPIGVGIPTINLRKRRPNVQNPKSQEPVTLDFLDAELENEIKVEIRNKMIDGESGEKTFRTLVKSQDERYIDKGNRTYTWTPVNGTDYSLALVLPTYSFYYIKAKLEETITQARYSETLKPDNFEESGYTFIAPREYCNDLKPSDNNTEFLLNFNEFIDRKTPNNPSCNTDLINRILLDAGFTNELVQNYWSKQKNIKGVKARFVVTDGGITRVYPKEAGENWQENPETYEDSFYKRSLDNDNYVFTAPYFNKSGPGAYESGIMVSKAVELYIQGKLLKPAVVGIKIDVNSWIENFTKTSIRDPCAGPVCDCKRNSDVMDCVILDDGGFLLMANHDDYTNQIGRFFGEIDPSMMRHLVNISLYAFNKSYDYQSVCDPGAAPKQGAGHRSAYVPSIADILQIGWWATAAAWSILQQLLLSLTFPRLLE
# Chain of N-type or omega HVA neuronal calcium channels; calcium currents in N1E-115 neuroblastoma cells (O08532 957-1103 partner limits assumed): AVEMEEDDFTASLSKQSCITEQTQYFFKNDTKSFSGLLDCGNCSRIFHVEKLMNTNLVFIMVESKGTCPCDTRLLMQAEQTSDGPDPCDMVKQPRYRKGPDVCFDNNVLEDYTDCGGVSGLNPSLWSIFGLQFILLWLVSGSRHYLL
compound,measurement,setting,value
"CN1CC[C@]23c4c5ccc(O)c4O[C@H]2[C@@H](O)C=C[C@H]3[C@H]1C5 [Morphine, morphine]","Analgesia (% Effect), mean MPE",[1],23
same,"Latency Percent Effect, mean",[1],17 and 19 and 18
same,"Latency Percent Effect, mean MPE",[1],26
COC(=O)C1=C(C)NC(C)=C(C(=O)OC)C1c1ccccc1[N+](=O)[O-] [nifedipine],effect on the measured calcium current,[2],no effect
amiodipine,% inhibition of [3H]dopamine release,[3],0
same,% inhibition of [3H]acetylcholine release,[4],0
cadmium,effect of addition to the medium on remaining voltage-gated calcium currents,[5],blockade of all remaining voltage-gated calcium currents
